The target in experiment [1] is T1, NDM-1 (Klebsiella pneumoniae, UniProt C7C422). As to the kind of experiment: biochemical. The following applies: cleavage of imipenem (100 uM) by NDM-1; read-out: Ki, Imipenem.
Another experiment addresses T2, VIM-1 (Pseudomonas aeruginosa, UniProt A0A0F7KYQ8).
T2 construct: made in house; host or cells: ECM6711 strain carrying pUCP24-VIM-1 plasmid; culture supernatant used unpurified
In words: biochemical. The conditions noted are these: cleavage of nitrocefin (200 uM) by VIM-1 supernatant.

Experiment [2] concerns the target T1, NDM-1. In words: Inhibition of purified class B carbapenemase NDM-1 (Ki, imipenem substrate). In kind it is biochemical. The conditions noted are these: NDM-1, substrate imipenem; read-out: Ki NDM-1, Imipenem.
For experiment [3], the target named is purified class A, C and D enzymes (Enterobacter cloacae, UniProt P05364). In kind it is biochemical. The following applies: purified P99/AmpC of ECL; nitrocefin reporter substrate.
In experiment [4] the target is purified class A, C and D enzymes (Escherichia coli, UniProt Q9L5C7). In kind it is biochemical. The following applies: purified CTX-M-14; nitrocefin reporter substrate.
Experiment [5] has as its target T3, purified class A, C and D enzymes (UniProt P0AD64, L31Q/G234S/E235K, species not given).
T3 construct: Ki (SHV-12, NCF); other: purified SHV-12; nitrocefin reporter substrate
T3 sequence (P0AD64 1-286 L31Q/G234S/E235K): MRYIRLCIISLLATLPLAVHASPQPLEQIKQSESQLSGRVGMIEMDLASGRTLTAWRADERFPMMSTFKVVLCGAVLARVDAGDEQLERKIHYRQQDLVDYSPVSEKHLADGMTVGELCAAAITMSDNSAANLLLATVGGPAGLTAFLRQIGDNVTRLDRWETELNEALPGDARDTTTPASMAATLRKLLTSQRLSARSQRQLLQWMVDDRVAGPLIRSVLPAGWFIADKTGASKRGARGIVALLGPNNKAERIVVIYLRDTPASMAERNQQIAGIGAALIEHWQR
In kind it is biochemical. The conditions noted are these: read-out: Ki (SHV-12, NCF); purified SHV-12; nitrocefin reporter substrate.

For experiment [6], the target named is T4, purified class A, C and D enzymes (UniProt Q6XEC0).
T4 construct: rows headed: Ki (OXA-48, NCF); other: purified OXA-48; nitrocefin reporter substrate
In kind it is biochemical. The conditions noted are these: read-out: Ki (OXA-48, NCF); purified OXA-48; nitrocefin reporter substrate.

The target in experiment [7] is T5, purified class A, C and D enzymes (UniProt Q9F663).
T5 construct: rows headed: Ki (KPC-2, NCF); other: purified KPC-2; nitrocefin reporter substrate
In kind it is biochemical. The following applies: read-out: Ki (KPC-2, NCF); purified KPC-2; nitrocefin reporter substrate.

This is an account of results in US10206937B2, “Boronic acid derivatives and therapeutic uses thereof” (Qpex Biopharma, Inc., priority 2014, dated 2019).

The term Ki denotes the equilibrium dissociation constant of an inhibitor or competing ligand from its target. By IC50 is commonly meant the point on the concentration scale where inhibition reaches its midpoint. Low readings indicate greater potency, high ones weaker potency.

Structures are written as SMILES.

T1 sequence (C7C422 29-270, looked up, species assumed): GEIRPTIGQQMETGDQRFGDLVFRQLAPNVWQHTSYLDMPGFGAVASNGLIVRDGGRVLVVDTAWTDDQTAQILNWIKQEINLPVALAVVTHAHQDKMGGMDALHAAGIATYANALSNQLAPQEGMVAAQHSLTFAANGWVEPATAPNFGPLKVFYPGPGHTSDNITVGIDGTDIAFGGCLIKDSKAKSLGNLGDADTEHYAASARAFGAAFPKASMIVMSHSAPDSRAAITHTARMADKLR
purified class A, C and D enzymes (Enterobacter cloacae, UniProt P05364), sequence (P05364 21-381): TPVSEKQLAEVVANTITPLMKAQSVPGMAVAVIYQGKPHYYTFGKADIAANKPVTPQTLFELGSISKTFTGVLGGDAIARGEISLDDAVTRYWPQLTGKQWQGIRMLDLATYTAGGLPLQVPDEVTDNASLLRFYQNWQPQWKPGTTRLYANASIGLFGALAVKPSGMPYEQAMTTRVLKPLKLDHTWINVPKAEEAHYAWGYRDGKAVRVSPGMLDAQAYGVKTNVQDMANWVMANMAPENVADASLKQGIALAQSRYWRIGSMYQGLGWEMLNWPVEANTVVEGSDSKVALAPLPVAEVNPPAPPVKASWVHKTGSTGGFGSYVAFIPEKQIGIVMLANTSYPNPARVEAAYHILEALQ
purified class A, C and D enzymes (Escherichia coli, UniProt Q9L5C7), sequence (Q9L5C7 entry or part of it): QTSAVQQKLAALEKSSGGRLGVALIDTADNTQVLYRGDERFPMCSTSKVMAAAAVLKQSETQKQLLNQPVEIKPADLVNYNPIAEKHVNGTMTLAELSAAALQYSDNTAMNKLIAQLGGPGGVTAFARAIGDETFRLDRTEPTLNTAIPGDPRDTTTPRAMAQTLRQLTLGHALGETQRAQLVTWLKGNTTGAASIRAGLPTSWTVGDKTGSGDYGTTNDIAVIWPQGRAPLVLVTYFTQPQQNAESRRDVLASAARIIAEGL

With `CCOc1ccc2c(c1C(=O)O)OB(O)[C@@H](Sc1nnc(N)s1)C2` [Compound 83, (3R)-3-[(5-amino-1,3,4-thiadiazol-2-yl)sulfanyl]-7-ethoxy-2-hydroxy-3,4-dihydro-1,2-benzoxaborinine-8-carboxylic acid], the Ki on NDM-1 [1] is below 10 nM; at NDM-1 [2], below 10 nM; in experiment [5], below 100 nM; in experiment [6], below 100 nM; in experiment [7], 100 to 1000 nM. Also, the IC50 against VIM-1 was below 1000 nM. In addition, the “Ki (P99/AmpC of ECL, NCF)” value in experiment [3] is recorded as “Y (0.1 μM to 1 μM)”. In addition, the “Ki (CTX-M-14, NCF)” value in experiment [4] was “X (Less than 0.1 μM)”.

For the molecule `Nc1nnc(S[C@H]2Cc3ccc(OC(F)F)c(C(=O)O)c3OB2O)s1` [Compound 84, (3R)-3-[(5-amino-1,3,4-thiadiazol-2-yl)sulfanyl]-7-(difluoromethoxy)-2-hydroxy-3,4-dihydro-1,2-benzoxaborinine-8-carboxylic acid], the Ki at NDM-1 [1] is 10 to 100 nM; at NDM-1 [2] it was 10 to 100 nM; in experiment [5], below 100 nM; in experiment [6] it was below 100 nM; in experiment [7] it was 100 to 1000 nM. Moreover, the IC50 against VIM-1 is below 1000 nM. The “Ki (P99/AmpC of ECL, NCF)” value in experiment [3] is on record as “Y (0.1 μM to 1 μM)”. Besides, the “Ki (CTX-M-14, NCF)” value in experiment [4] is listed as “X (Less than 0.1 μM)”.

Consider `CC(C)Oc1ccc2c(c1C(=O)O)OB(O)[C@@H](Sc1nncs1)C2` [Compound 85, (3R)-2-hydroxy-7-isopropoxy-3-(1,3,4-thiadiazol-2-ylsulfanyl)-3,4-dihydro-1,2-benzoxaborinine-8-carboxylic acid], for which the Ki is above 100 nM on NDM-1 [1]; above 100 nM on NDM-1 [2]; below 100 nM in experiment [5]; below 100 nM in experiment [6]; 100 to 1000 nM in experiment [7]. Further, the IC50 at VIM-1 was below 1000 nM. In experiment [3], the “Ki (P99/AmpC of ECL, NCF)” value was “Y (0.1 μM to 1 μM)”. The “Ki (CTX-M-14, NCF)” value in experiment [4] is on record as “X (Less than 0.1 μM)”.

`N#CCOc1ccc2c(c1C(=O)O)OB(O)[C@@H](Sc1nncs1)C2` [Compound 86, (3R)-7-(cyanomethoxy)-2-hydroxy-3-(1,3,4-thiadiazol-2-ylsulfanyl)-3,4-dihydro-1,2-benzoxaborinine-8-carboxylic acid]: the Ki on NDM-1 [1] is above 100 nM; on NDM-1 [2], above 100 nM; in experiment [5], below 100 nM; in experiment [6], below 100 nM; in experiment [7], 100 to 1000 nM. In addition, the IC50 on VIM-1 was below 1000 nM. Further, in experiment [3], the “Ki (P99/AmpC of ECL, NCF)” value is “Z (Greater than 1 μM)”. Also, the “Ki (CTX-M-14, NCF)” value in experiment [4] was “X (Less than 0.1 μM)”.

For the molecule `O=C(O)c1c(OCCF)ccc2c1OB(O)[C@@H](Sc1nncs1)C2` [Compound 87, (3R)-7-(2-fluoroethoxy)-2-hydroxy-3-(1,3,4-thiadiazol-2-ylsulfanyl)-3,4-dihydro-1,2-benzoxaborinine-8-carboxylic acid], the Ki is above 100 nM at NDM-1 [1]; 10 to 100 nM at NDM-1 [2]; below 100 nM in experiment [5]; below 100 nM in experiment [6]; 100 to 1000 nM in experiment [7]. This molecule also displayed an IC50 on VIM-1 below 1000 nM. Moreover, the “Ki (P99/AmpC of ECL, NCF)” value in experiment [3] is “Y (0.1 μM to 1 μM)”. Moreover, the “Ki (CTX-M-14, NCF)” value in experiment [4] is “X (Less than 0.1 μM)”.

On to `CC(C)COc1ccc2c(c1C(=O)O)OB(O)[C@@H](Sc1nncs1)C2` [Compound 88, (3R)-2-hydroxy-7-isobutoxy-3-(1,3,4-thiadiazol-2-ylsulfanyl)-3,4-dihydro-1,2-benzoxaborinine-8-carboxylic acid], for which the Ki was 10 to 100 nM at NDM-1 [1]; 10 to 100 nM on NDM-1 [2]; below 100 nM in experiment [5]; below 100 nM in experiment [6]; 100 to 1000 nM in experiment [7]. The IC50 against VIM-1 is below 1000 nM. Moreover, in experiment [3], the “Ki (P99/AmpC of ECL, NCF)” value is reported as “Y (0.1 μM to 1 μM)”. The “Ki (CTX-M-14, NCF)” value in experiment [4] is “X (Less than 0.1 μM)”.

As for `COCCOc1ccc2c(c1C(=O)O)OB(O)[C@@H](Sc1nncs1)C2` [Compound 89, (3R)-2-hydroxy-7-(2-methoxyethoxy)-3-(1,3,4-thiadiazol-2-ylsulfanyl)-3,4-dihydro-1,2-benzoxaborinine-8-carboxylic acid], the Ki at NDM-1 [1] was 10 to 100 nM; on NDM-1 [2], 10 to 100 nM; in experiment [5], below 100 nM; in experiment [6], below 100 nM; in experiment [7] it was 100 to 1000 nM. Also, at VIM-1, the IC50 is below 1000 nM. In addition, the “Ki (P99/AmpC of ECL, NCF)” value in experiment [3] is listed as “Z (Greater than 1 μM)”. The “Ki (CTX-M-14, NCF)” value in experiment [4] was “X (Less than 0.1 μM)”.

On to `Nc1nnc(S[C@H]2Cc3ccc(OCC(F)F)c(C(=O)O)c3OB2O)s1` [Compound 90, (3R)-3-[(5-amino-1,3,4-thiadiazol-2-yl)sulfanyl]-7-(2,2-difluoroethoxy)-2-hydroxy-3,4-dihydro-1,2-benzoxaborinine-8-carboxylic acid], for which the Ki is 10 to 100 nM on NDM-1 [1]; 10 to 100 nM at NDM-1 [2]; below 100 nM in experiment [5]; below 100 nM in experiment [6]; below 100 nM in experiment [7]. This molecule returned an IC50 against VIM-1 below 1000 nM. Further, the “Ki (P99/AmpC of ECL, NCF)” value in experiment [3] is on record as “Z (Greater than 1 μM)”. For the same molecule, the “Ki (CTX-M-14, NCF)” value in experiment [4] is “X (Less than 0.1 μM)”.

On to `O=C(O)c1c(OCC(F)F)ccc2c1OB(O)[C@@H](Sc1nncs1)C2` [Compound 91, (3R)-7-(2,2-difluoroethoxy)-2-hydroxy-3-(1,3,4-thiadiazol-2-ylsulfanyl)-3,4-dihydro-1,2-benzoxaborinine-8-carboxylic acid], for which the Ki at NDM-1 [1] is 10 to 100 nM; on NDM-1 [2], 10 to 100 nM; in experiment [5], below 100 nM; in experiment [6], below 100 nM; in experiment [7], 100 to 1000 nM. This molecule also displayed an IC50 against VIM-1 below 1000 nM. In addition, the “Ki (P99/AmpC of ECL, NCF)” value in experiment [3] is “Y (0.1 μM to 1 μM)”. Further, in experiment [4], the “Ki (CTX-M-14, NCF)” value is recorded as “X (Less than 0.1 μM)”.

Consider `COc1ccc2c(c1C(=O)O)OB(O)[C@@H](Sc1nnc(NC3CNC3)s1)C2` [Compound 96, (3R)-3-[[5-(azetidin-3-ylamino)-1,3,4-thiadiazol-2-yl]sulfanyl]-2-hydroxy-7-methoxy-3,4-dihydro-1,2-benzoxaborinine-8-carboxylic acid], for which the Ki at NDM-1 [1] is below 10 nM; at NDM-1 [2] it was below 10 nM; in experiment [5] it was below 100 nM; in experiment [6] it was below 100 nM; in experiment [7] it was 100 to 1000 nM. The molecule further returned an IC50 on VIM-1 below 1000 nM. In experiment [3], the “Ki (P99/AmpC of ECL, NCF)” value is “Y (0.1 μM to 1 μM)”. In experiment [4], the “Ki (CTX-M-14, NCF)” value is “X (Less than 0.1 μM)”.

On to `COc1ccc2c(c1C(=O)O)OB(O)[C@@H](Sc1nnc(NCCN3CCNCC3)s1)C2` [Compound 98, (3R)-2-hydroxy-7-methoxy-3-[[5-(2-piperazin-1-ylethylamino)-1,3,4-thiadiazol-2-yl]sulfanyl]-3,4-dihydro-1,2-benzoxaborinine-8-carboxylic acid], for which the Ki on NDM-1 [1] is 10 to 100 nM; at NDM-1 [2] it was 10 to 100 nM; in experiment [5], below 100 nM; in experiment [6], below 100 nM; in experiment [7] it was 100 to 1000 nM. Moreover, at VIM-1, the IC50 was below 1000 nM. The “Ki (P99/AmpC of ECL, NCF)” value in experiment [3] is “Y (0.1 μM to 1 μM)”. Further, the “Ki (CTX-M-14, NCF)” value in experiment [4] is on record as “X (Less than 0.1 μM)”.
